What is called pIC50 is the negative decadic logarithm of the IC50, by convention in mol/L.

SMILES strings stand for the structures. pIC50: −log10 of the molar value.

Test [1] addresses T1, C5aR (Homo sapiens (Human), UniProt P21730). The test can be described thus: Calcium mobilization (U937/C5aR or HEK293/C5aR cells, FLIPR). Format: cell-based. The following applies: agonist human C5a at EC80, FLIPR. In short, it runs like this: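 FLIPR calcium-flux read-out using Fluo-4 Direct-loaded C5aR-expressing U937 or HEK293 cells stimulated with human C5a at its EC80. Compound was applied for 60 min before dye loading (50 min at 37 °C plus 10 min at room temperature) and agonist addition.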

Test [2] concerns the target T1, C5aR. The test can be described thus: Inhibition of C5a-C5aR binding determined by cell migration assay (U937/C5aR cells). Format: cell-based. Conditions: U937/C5aR cell migration towards human C5a, 180 min. How it is done: Migration assay was performed by using polycarbonate membrane with 3.0 µm pore (Corning). U937/C5aR cells were collected and washed twice by PBS; cells were suspended in Hank's balanced salt solution (HBSS)+1% FBS buffer at the density of 6×10^6 cells/ml. Cells were premixed with compound and added to insert well, ligand human C5a and compound were added to bottom well in order, gently mix, incubate for 30 min at 37° C., […]. Put insert plate into bottom well, migrate for 180 min at 37° C., […]. Gently remove the insert well, add 50 μl CellTiter-Glo (Promega), gently shaking for 5 min at room temperature, transfer 150 μl mixture to black plate and read luminescence intensity by
microplate reader (BioTek).

Test [3] concerns the target human C5a receptor (C5aR) (Homo sapiens (Human), UniProt P21730). Put plainly: Inhibition of C5a-C5aR binding (biotinylated human C5a, U937/C5aR cells, FACS). In short, it runs like this: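 Binding read by flow cytometry as FITC-streptavidin signal (30 min on ice) on washed cells after a 120 min on-ice incubation of compound with biotinylated human C5a (30 nM working solution). Cells used were C5aR-transfected U937, suspended at 3×10^6 cells/ml in PBS containing 0.1% BSA.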

T1 sequence (P21730 whole entry): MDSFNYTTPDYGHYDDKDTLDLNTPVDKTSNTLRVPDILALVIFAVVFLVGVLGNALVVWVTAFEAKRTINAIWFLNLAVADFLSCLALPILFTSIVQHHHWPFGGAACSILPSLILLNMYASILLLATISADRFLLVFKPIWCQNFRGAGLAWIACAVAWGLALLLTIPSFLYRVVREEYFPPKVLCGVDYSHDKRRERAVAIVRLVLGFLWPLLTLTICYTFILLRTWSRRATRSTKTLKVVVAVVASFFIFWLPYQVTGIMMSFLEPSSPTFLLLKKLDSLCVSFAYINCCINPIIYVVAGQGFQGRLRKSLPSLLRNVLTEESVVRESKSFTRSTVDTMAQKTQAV
Chain of human C5a receptor (C5aR) (P21730 whole entry): as above

With `Cc1cccc(F)c1C(=O)N1[C@@H]2CCC[C@@H]2C[C@H](C(=O)Nc2ccc3cnn(C)c3c2)[C@@H]1c1ccc(NC2CCCC2)cc1` (racemic) [Compound 66, cis-2-(4-(cyclopentylamino)phenyl)-1-(2-fluoro-6-methylbenzoyl)-N-(1-methyl-1H-indazol-6-yl)octahydro-1H-cyclopenta[b]pyridine-3-carboxamide], the pIC50 is 6.30 to 7.30 on C5aR [1] and > 7.30 at C5aR [2].

Regarding `Cc1ccc(NC(=O)[C@H]2CC[C@@H]3Cc4ccccc4C(=O)N3C2c2ccc(NC3CCCC3)cc2)cc1C(F)(F)F` (relative stereo) [Compound 43, cis-4-(4-(cyclopentylamino)phenyl)-N-(4-methyl-3-(trifluoromethyl)phenyl)-6-oxo-1,3,4,6,11,11a-hexahydro-2H-pyrido[1,2-b]isoquinoline-3-carboxamide], the results for the negative logarithm of the IC50 (pIC50) at C5aR [1] and at C5aR [2] were 5.00 to 5.70 and < 5.30, respectively.

Consider `Cc1ccc(NC(=O)C2C[C@@H]3CN(C)C[C@@H]3N(C(=O)c3c(C)cccc3F)C2c2ccc(N(C)C3CCCC3)cc2)cc1C(F)(F)F` (relative stereo) [Compound 144, cis-2-(4-(cyclopentyl(methyl)amino)phenyl)-1-(2-fluoro-6-methylbenzoyl)-6-methyl-N-(4-methyl-3-(trifluoromethyl)phenyl)octahydro-1H-pyrrolo[3,4-b]pyridine-3-carboxamide], for which the values for the pIC50 on C5aR [1] and at C5aR [2] were 5.00 to 5.70 and 6.30 to 7.30, respectively.

For `Cc1ccc(NC(=O)C2C[C@@H]3CCC[C@@H]3N(C(=O)c3c(C)cccc3F)C2c2ccc(NC3CCCC3)cc2)cc1C(F)(F)F` (relative stereo) [Compound 193, cis-2-(4-(cyclopentylamino)phenyl)-1-(2-fluoro-6-methylbenzoyl)-N-(4-methyl-3-(trifluoromethyl)phenyl)octahydro-1H-cyclopenta[b]pyridine-3-carboxamide], the values for the negative-log IC50 (pIC50) at C5aR [1] and on C5aR [2] were > 7.30 and 6.30 to 7.30, respectively.

For the compound `Cc1ccc(NC(=O)[C@H]2CCCN(C(=O)c3c(C)cccc3F)[C@H]2C2CCC3(CCOC3)CC2)cc1C(F)(F)F` (relative stereo) [Compound 203, cis-1-(2-fluoro-6-methylbenzoyl)-N-(4-methyl-3-(trifluoromethyl)phenyl)-2-(2-oxaspiro[4.5]decan-8-yl)piperidine-3-carboxamide], the figures for the pIC50 at C5aR [1] and at C5aR [2] were 5.00 to 5.70 and 5.70 to 6.30, respectively.

In the case of `Cc1ccc(NC(=O)[C@@H]2CC(O)CN(C(=O)c3c(C)cccc3F)[C@@H]2c2ccc(NC3CCCC3)cc2)cc1C(F)(F)F` (relative stereo) [Compound 204, cis-2-(4-(cyclopentylamino)phenyl)-1-(2-fluoro-6-methylbenzoyl)-5-hydroxy-N-(4-methyl-3-(trifluoromethyl)phenyl)piperidine-3-carboxamide], the negative logarithm of the IC50 (pIC50) on C5aR [1] was 5.00 to 5.70; on C5aR [2], 6.30 to 7.30.

For `Cc1cccc(F)c1C(=O)N1C2CCCC2CC(C(=O)Nc2ccc3c(cnn3C)c2)C1c1ccc(CN2CCC[C@@H]2C(F)(F)F)cc1` (stereo in doubt) [Compound 205, cis-1-(2-fluoro-6-methylbenzoyl)-N-(1-methyl-1H-indazol-5-yl)-2-(4-(((R)-2-(trifluoromethyl)pyrrolidin-1-yl)methyl)phenyl)octahydro-1H-cyclopenta[b]pyridine-3-carboxamide], at C5aR [2], the negative logarithm of the IC50 (pIC50) was > 7.30.

Consider `Cc1ccc(NC(=O)[C@H]2CCCN(S(=O)(=O)c3ccccc3)[C@H]2c2ccc(NC3CCCC3)cc2)cc1C(F)(F)F` [Compound 34, (2R,3S)-2-(4-(cyclopentylamino)phenyl)-N-(4-methyl-3-(trifluoromethyl)phenyl)-1-(phenylsulfonyl)piperidine-3-carboxamide], for which the results for the negative-log IC50 (pIC50) (in test [3]; on C5aR [1]) were 5.30 to 5.70 and < 5.00, respectively.

As to `Cc1ccc(NC(=O)[C@H]2CCCN(S(=O)(=O)c3cccnc3)[C@H]2c2ccc(NC3CCCC3)cc2)cc1C(F)(F)F` [Compound 35, (2R,3S)-2-(4-(cyclopentylamino)phenyl)-N-(4-methyl-3-(trifluoromethyl)phenyl)-1-(pyridin-3-ylsulfonyl)piperidine-3-carboxamide], the pIC50 was 5.30 to 5.70 in test [3] and < 5.00 at C5aR [1].

Take `Cc1ccc(NC(=O)[C@H]2CCCN(S(=O)(=O)c3cccnc3Cl)[C@H]2c2ccc(NC3CCCC3)cc2)cc1C(F)(F)F` [Compound 36, (2R,3S)-1-((2-chloropyridin-3-yl)sulfonyl)-2-(4-(cyclopentylamino)phenyl)-N-(4-methyl-3-(trifluoromethyl)phenyl)piperidine-3-carboxamide]: the results for the pIC50 (in test [3]; on C5aR [1]) were 5.70 to 6.30 and 5.00 to 5.70, respectively.

`Cc1ccc(NC(=O)[C@H]2CCCN(S(=O)(=O)c3c(F)c(F)c(F)c(F)c3F)[C@H]2c2ccc(NC3CCCC3)cc2)cc1C(F)(F)F` [Compound 37, (2R,3S)-2-(4-(cyclopentylamino)phenyl)-N-(4-methyl-3-(trifluoromethyl)phenyl)-1-((perfluorophenyl)sulfonyl)piperidine-3-carboxamide]: the negative-log IC50 (pIC50) at C5aR [1] is 5.00 to 5.70; on C5aR [2], < 5.30.

For the compound `Cc1ccc(NC(=O)[C@H]2CCCN(S(=O)(=O)c3c(C)nn(C)c3C)[C@H]2c2ccc(NC3CCCC3)cc2)cc1C(F)(F)F` [Compound 38, (2R,3S)-2-(4-(cyclopentylamino)phenyl)-N-(4-methyl-3-(trifluoromethyl)phenyl)-1-((1,3,5-trimethyl-1H-pyrazol-4-yl)sulfonyl)piperidine-3-carboxamide], the pIC50 in test [3] was 5.30 to 5.70; on C5aR [1], < 5.00.

`Cc1ccc(NC(=O)[C@H]2CCCN(S(=O)(=O)Cc3ccccc3)[C@H]2c2ccc(NC3CCCC3)cc2)cc1C(F)(F)F` [Compound 40, (2R,3S)-1-(benzylsulfonyl)-2-(4-(cyclopentylamino)phenyl)-N-(4-methyl-3-(trifluoromethyl)phenyl)piperidine-3-carboxamide]: the negative-log IC50 (pIC50) in test [3] was > 7.30; at C5aR [1] it was 5.00 to 5.70.

For `Cc1cccc(F)c1C(=O)N1[C@@H]2CCC[C@@H]2C[C@H](C(=O)Nc2ccc3cnn(C)c3c2)[C@@H]1c1ccc(NC2CCCC2)cc1` [Compound 50, (2R,3S,4aR,7aR)-2-(4-(cyclopentylamino)phenyl)-1-(2-fluoro-6-methylbenzoyl)-N-(1-methyl-1H-indazol-6-yl)octahydro-1H-cyclopenta[b]pyridine-3-carboxamide], the pIC50 in test [3] was > 7.30; at C5aR [1], 5.70 to 6.30.

For the compound `Cc1cccc(F)c1C(=O)N1[C@@H]2CCC[C@@H]2C[C@H](C(=O)NC2CCOCC2)[C@@H]1c1ccc(NC2CCCC2)cc1` [Compound 52, (2R,3S,4aR,7aR)-2-(4-(cyclopentylamino)phenyl)-1-(2-fluoro-6-methylbenzoyl)-N-(tetrahydro-2H-pyran-4-yl)octahydro-1H-cyclopenta[b]pyridine-3-carboxamide], the negative logarithm of the IC50 (pIC50) in test [3] was 5.30 to 5.70; on C5aR [1] it was 5.00 to 5.70.

As for `Cc1ccc(NC(=O)[C@H]2CCCN(c3ncnc4cccnc34)[C@H]2c2ccc(NC3CCCC3)cc2)cc1C(F)(F)F` [Compound 161, (2R,3S)-2-(4-(cyclopentylamino)phenyl)-N-(4-methyl-3-(trifluoromethyl)phenyl)-1-(pyrido[3,2-d]pyrimidin-4-yl)piperidine-3-carboxamide], the negative-log IC50 (pIC50) in test [3] was 6.30 to 7.30; on C5aR [1] it was 5.00 to 5.70.

As to `Cc1ccc(NC(=O)[C@H]2CCCN(c3ncnc4cccnc34)[C@H]2c2ccc(N(C(=O)OCc3ccccc3)C3CCCC3)cc2)cc1C(F)(F)F` [Compound 166, benzyl cyclopentyl(4-((2R,3S)-3-((4-methyl-3-(trifluoromethyl)phenyl)carbamoyl)-1-(pyrido[3,2-d]pyrimidin-4-yl)piperidin-2-yl)phenyl)carbamate], the figures for the pIC50 (in test [3]; on C5aR [1]) were 5.30 to 5.70 and 5.00 to 5.70, respectively.

Take `Cc1ccc(NC(=O)[C@H]2CCCN(C(=O)c3c(C)noc3C)[C@H]2c2ccc(NC3CCCC3)cc2)cc1C(F)(F)F` [Compound 190, (2R,3S)-2-(4-(cyclopentylamino)phenyl)-1-(3,5-dimethylisoxazole-4-carbonyl)-N-(4-methyl-3-(trifluoromethyl)phenyl)piperidine-3-carboxamide]: the pIC50 in test [3] was 5.70 to 6.30; on C5aR [1], 5.00 to 5.70.

In the case of `Cc1ccc(NC(=O)[C@H]2CCCN[C@H]2c2ccc(NC3CCCC3)cc2)cc1C(F)(F)F` [Compound 200, (2R,3S)-2-(4-(cyclopentylamino)phenyl)-N-(4-methyl-3-(trifluoromethyl)phenyl)piperidine-3-carboxamide], the pIC50 in test [3] is < 5.30; on C5aR [1] it was 5.00 to 5.70.

For the compound `Cc1cccc(F)c1C(=O)N1C2CCCC2CC(C(=O)Nc2ccc3c(c2)CCN(C(=O)OC(C)(C)C)C3)C1c1ccc(NC2CCCC2)cc1` (stereo not drawn) [Compound 202, tert-butyl 6-cis-2-(4-(cyclopentylamino)phenyl)-1-(2-fluoro-6-methylbenzoyl)octahydro-1H-cyclopenta[b]pyridine-3-carboxamido)-3,4-dihydroisoquinoline-2(1H)-carboxylate], the pIC50 in test [3] was < 5.30; at C5aR [1], 5.00 to 5.70.

(Values after patent US20240043439A1, “COMPOUNDS AS C5AR INHIBITORS” (Kira Pharmaceuticals (Suzhou) Ltd., priority 2020, published 2024).)
